Values quoted from earlier work, collected in patent EP3616687A2, “PREPARATION FOR THE TREATMENT AND/OR PROPHYLAXIS OF INFLAMMATORY INFECTIOUS DISEASES” (Lovtsov, Valentin Vyacheslavovich, priority 2017, dated 2018).

Details: clinical microbiological studies

For `[H]/N=C(\N/C(=N/[H])NCCCCCCNC(=N)NC(=N)Nc1ccc(Cl)cc1)Nc1ccc(Cl)cc1` [Chlorhexidine], the “antibacterial activity, fold higher compared to Miramistine” value is given as 8 fold.
